Structures are written as SMILES. Converted amounts (≈) assume the structure as drawn.

The conditions of the data set: buffer; pH 7.4; 200.0 µM.
Broadly, the kinetic solubility is the concentration staying in solution when a stock, usually in DMSO, is diluted into the medium. As for `Cc1cccc2c3c([nH]c12)C(=O)CC(C)(C)S3`, the solubility (kinetic) was less than 0.5 µg/mL. For `CCc1cc(C(=O)N2CCN(c3ccccn3)CC2)sc1C` the value was 43 µg/mL (≈ 136 µM). In turn, `CC1CN(S(=O)(=O)c2cccc(C(=O)NCCc3ccc(S(N)(=O)=O)cc3)c2)CC(C)O1` (stereo not given) yielded a solubility (kinetic) greater than 72.2 µg/mL. The value for `COC(=O)c1c(C)[nH]c(C)c1-c1ccc([N+](=O)[O-])cc1` was 36.3 µg/mL (≈ 132 µM); that for `O=C1NC(c2cccc([N+](=O)[O-])c2)=CCN1c1ccccc1O` was 45.2 µg/mL (≈ 145 µM); that for `N#CC1(C#N)C(C(=O)C23CC4CC(CC(C4)C2)C3)C12CCOCC2` (stereo not given) was 3.3 µg/mL (≈ 10.2 µM). `COc1cc2c3c(c1)C(C)CC(C)(C)N3C(=O)C2=O` (stereo not given) came in with a solubility (kinetic) of 36.2 µg/mL (≈ 140 µM). For `COc1ccc(OCCC(=O)OCC(=O)NC2CCCCC2)cc1` the value was 37 µg/mL (≈ 110 µM); for `CC(C)c1ccc(C(=O)OCC(=O)c2c(N)n(C)c(=O)n(C)c2=O)cc1`, 4.4 µg/mL (≈ 12.2 µM). For `Cc1cccc(NC(=O)NC2(C)CCS(=O)(=O)C2)c1` (stereo not given) the value was greater than 42.4 µg/mL; for `COc1ccccc1CNC(=O)C(NC(=O)c1ccccc1)C(C)C` (stereo not given), 9.9 µg/mL (≈ 29.1 µM). As for `Cc1ccccc1Nc1nc(N)nc(COC(=O)c2c(C)noc2C)n1`, the solubility (kinetic) is greater than 53.2 µg/mL. For `N#C/C(=C\c1c(N2CCCCCC2)nc2ccccn2c1=O)C(N)=O` the value was greater than 50.6 µg/mL. For `CC(C)(C)C1COc2ccccc2N1C(=O)c1ccccc1Cl` (stereo not given) the value was less than 0.7 µg/mL. For `Cc1nc(SCC(=O)NC(=O)NC2CCCCC2)nc(C)c1C` the value was 47.8 µg/mL (≈ 142 µM); for `Cc1cc(=O)[nH]c(-c2ccc(Cl)cc2)n1`, greater than 33.1 µg/mL. Take `Cc1cc(C(=O)Nc2cccc([N+](=O)[O-])c2C)cs1`: the solubility (kinetic) came out at 13.6 µg/mL (≈ 49.2 µM). The value for `COc1ccccc1CC(=O)NC1CCCCCC1` was 37.6 µg/mL (≈ 144 µM); that for `O=C(NCCOc1cccc2cccnc12)c1cccs1` was greater than 44.8 µg/mL; that for `Cc1nc2cc(NS(=O)(=O)c3ccccc3F)ccc2s1` was 35.6 µg/mL (≈ 110 µM). `O=C(COC(=O)c1ccc(O)cc1)Nc1ccc(S(=O)(=O)N2CCOCC2)cc1` showed a kinetic solubility of 52.4 µg/mL (≈ 125 µM). The value for `C=CCNc1nc(-c2ccc3c(c2)OCCO3)cs1` was 16.3 µg/mL (≈ 59.4 µM); that for `O=C(Nc1ccccc1)C1CCCN(C(=O)c2ccc(F)cc2)C1` (stereo not given) was greater than 49 µg/mL. `Cc1ccc(C(=O)NC23CC4CC(CC(C4)C2)C3)c(Cl)c1` came in with a kinetic solubility of 0.7 µg/mL (≈ 2.3 µM). `COc1ccc(NC(=O)CC2SC(N3CCCC3)=NC2=O)cc1Cl` (stereo not given): the solubility (kinetic) stood at 6.8 µg/mL (≈ 18.5 µM). Compared with the last compound, the solubility kinetic is about 9.7-fold higher. For `CCN(CC)c1ccc(NC(=O)CSC(=O)c2ccccc2)cc1.O=S(=O)(O)O` the value was 4.1 µg/mL; for `COc1ccc(Cl)cc1NC(=O)CN(C)Cc1cccs1`, 3 µg/mL (≈ 9.24 µM). In the case of `Cc1ccc(C(=O)NCc2ccc3c(c2)OCO3)cc1`, the solubility (kinetic) was 34.8 µg/mL (≈ 129 µM).

Compound `Cc1ccc(CNC(=O)C2CC(=O)N(C3CCCC3)C2)cc1` (stereo not given) displayed a kinetic solubility of 41.2 µg/mL (≈ 137 µM). `COc1ccc(Cl)cc1C(=O)Nc1ccncc1` displayed a solubility (kinetic) greater than 39.4 µg/mL. `CC(CNC(=O)c1ccco1)NC(=O)c1ccco1` (stereo not given) came in with a kinetic solubility of 38.8 µg/mL (≈ 148 µM). For `CC(NC(=O)c1ccccc1[N+](=O)[O-])C1CC2CCC1C2` (stereo not given) the value was 35.2 µg/mL (≈ 122 µM). The value for `COC(=O)CN=Cc1c(O)n(-c2ccc(Cl)cn2)c(=O)c2ccccc12` was greater than 55.8 µg/mL. The value for `S=c1[nH]c2ccccc2n2c(=S)[nH]nc12` was greater than 35.1 µg/mL; that for `Cn1c(=O)n(C)c2cc(S(=O)(=O)Nc3ccccc3C(=O)O)ccc21` was greater than 54.2 µg/mL; that for `O=C(NCCc1ccc(F)cc1)c1cc2ccccc2oc1=O` was less than 0.7 µg/mL. `Cc1nc(CNS(=O)(=O)c2cc([N+](=O)[O-])ccc2C)cs1` had a kinetic solubility of 10.3 µg/mL (≈ 31.5 µM). The value for `O=C(COC(=O)C1C2CC3OC(=O)C1C3C2)Nc1ccc(Cl)cc1` (stereo not given) was 48.8 µg/mL (≈ 140 µM). The value for `COc1ccc(N2C(=O)c3ccccc3C(C)(C)C2=O)cc1` was 5.4 µg/mL (≈ 18.3 µM); that for `CCOc1ccc(CCNC(=O)Nc2ccccc2C)cc1OCC` was 3.2 µg/mL (≈ 9.34 µM).
